ChEMBL document CHEMBL5506043, “A β-Carboline Derivate PAD4 Inhibitor Reshapes Neutrophil Phenotype and Improves the Tumor Immune Microenvironment against Triple-Negative Breast Cancer” (J Med Chem, 2024)
Active and inactive are the calls of the source.

Columns and labels:
[1] = target: Protein-arginine deiminase type-2 (Homo sapiens, UniProt Q9Y2J8); assay: Inhibition of PAD2 (unknown origin) using Nalpha-benzoyl-L-arginine ethyl ester as substrate preincubated for 60 mins followed by substrate addition and measured after 90 mins by colorimetric analysis
Protein-arginine deiminase type-2, sequence (Q9Y2J8 whole entry): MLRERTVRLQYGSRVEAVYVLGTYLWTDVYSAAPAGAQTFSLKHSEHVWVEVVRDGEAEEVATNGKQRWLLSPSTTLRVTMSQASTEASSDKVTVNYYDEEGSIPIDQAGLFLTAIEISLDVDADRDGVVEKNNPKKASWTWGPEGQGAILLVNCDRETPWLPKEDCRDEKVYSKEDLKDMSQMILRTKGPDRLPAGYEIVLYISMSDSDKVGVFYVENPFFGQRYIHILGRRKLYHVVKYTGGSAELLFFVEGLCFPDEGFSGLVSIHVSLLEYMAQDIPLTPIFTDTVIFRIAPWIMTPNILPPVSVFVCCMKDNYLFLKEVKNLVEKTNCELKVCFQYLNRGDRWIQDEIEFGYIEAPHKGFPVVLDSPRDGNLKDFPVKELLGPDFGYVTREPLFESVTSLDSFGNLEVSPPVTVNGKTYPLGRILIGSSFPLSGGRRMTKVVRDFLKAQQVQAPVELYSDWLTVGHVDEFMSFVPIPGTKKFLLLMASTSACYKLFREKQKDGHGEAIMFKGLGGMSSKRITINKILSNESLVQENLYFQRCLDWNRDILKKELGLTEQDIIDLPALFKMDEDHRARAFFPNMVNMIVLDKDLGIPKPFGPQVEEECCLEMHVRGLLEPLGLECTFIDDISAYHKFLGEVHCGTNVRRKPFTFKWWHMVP

[2] = target: Protein-arginine deiminase type-4 (Homo sapiens, UniProt Q9UM07); assay: Inhibition of PAD4 (unknown origin) using Nalpha-benzoyl-L-arginine ethyl ester as substrate preincubated for 60 mins followed by substrate addition and measured after 90 mins by colorimetric analysis
Protein-arginine deiminase type-4, sequence (Q9UM07 whole entry): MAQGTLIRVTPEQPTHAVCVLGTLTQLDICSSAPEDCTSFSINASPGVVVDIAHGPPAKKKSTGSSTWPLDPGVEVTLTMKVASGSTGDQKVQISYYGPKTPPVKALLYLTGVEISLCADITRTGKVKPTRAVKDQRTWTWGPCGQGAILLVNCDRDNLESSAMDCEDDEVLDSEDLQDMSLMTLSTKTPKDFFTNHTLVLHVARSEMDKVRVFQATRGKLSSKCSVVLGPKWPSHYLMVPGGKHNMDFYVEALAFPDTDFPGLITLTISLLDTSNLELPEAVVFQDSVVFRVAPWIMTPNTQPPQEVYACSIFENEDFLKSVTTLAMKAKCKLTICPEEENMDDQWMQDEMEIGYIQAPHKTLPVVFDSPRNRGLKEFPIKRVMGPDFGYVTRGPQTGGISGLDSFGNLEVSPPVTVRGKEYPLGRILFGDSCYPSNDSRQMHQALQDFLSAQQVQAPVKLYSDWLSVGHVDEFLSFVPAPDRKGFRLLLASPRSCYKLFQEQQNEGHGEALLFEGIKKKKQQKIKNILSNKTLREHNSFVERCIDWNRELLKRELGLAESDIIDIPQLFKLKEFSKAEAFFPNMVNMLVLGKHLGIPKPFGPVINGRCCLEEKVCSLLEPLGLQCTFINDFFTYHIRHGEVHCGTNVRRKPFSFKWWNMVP

[3] = Cytotoxicity against human MCF-10A cells assessed as inhibition of cell growth incubated for 48 hrs by MTT assay; type: toxicity, cell-based
[4] = tested on: 4T1; assay: Antimetastatic activity in starved mouse 4T1 cells assessed as inhibition of cell migration by measuring reduction in number of metastatic cells incubated for 12 hrs by crystal violet staining based transwell assay; type: functional; settings: dose 0.5-2 µM
[5] = tested on: 4T1; assay: Antimetastatic activity in starved mouse 4T1 cells assessed as inhibition of cell migration by measuring reduction in wound closure rate incubated for 24 hrs by scratch wound healing assay; type: functional, cell-based; settings: dose 0.5-2 µM
[6] = target: Protein-arginine deiminase type-4 (Mus musculus) (UniProt Q9Z183); assay: Inhibition of PAD4 in mouse 4T1 cells assessed as reduction in histone H3 citrullination measured after 48 hrs by immunoblot analysis; type: cell-based; settings: dose 0.5-2 µM
Protein-arginine deiminase type-4 (Mus musculus), sequence (Q9Z183 whole entry): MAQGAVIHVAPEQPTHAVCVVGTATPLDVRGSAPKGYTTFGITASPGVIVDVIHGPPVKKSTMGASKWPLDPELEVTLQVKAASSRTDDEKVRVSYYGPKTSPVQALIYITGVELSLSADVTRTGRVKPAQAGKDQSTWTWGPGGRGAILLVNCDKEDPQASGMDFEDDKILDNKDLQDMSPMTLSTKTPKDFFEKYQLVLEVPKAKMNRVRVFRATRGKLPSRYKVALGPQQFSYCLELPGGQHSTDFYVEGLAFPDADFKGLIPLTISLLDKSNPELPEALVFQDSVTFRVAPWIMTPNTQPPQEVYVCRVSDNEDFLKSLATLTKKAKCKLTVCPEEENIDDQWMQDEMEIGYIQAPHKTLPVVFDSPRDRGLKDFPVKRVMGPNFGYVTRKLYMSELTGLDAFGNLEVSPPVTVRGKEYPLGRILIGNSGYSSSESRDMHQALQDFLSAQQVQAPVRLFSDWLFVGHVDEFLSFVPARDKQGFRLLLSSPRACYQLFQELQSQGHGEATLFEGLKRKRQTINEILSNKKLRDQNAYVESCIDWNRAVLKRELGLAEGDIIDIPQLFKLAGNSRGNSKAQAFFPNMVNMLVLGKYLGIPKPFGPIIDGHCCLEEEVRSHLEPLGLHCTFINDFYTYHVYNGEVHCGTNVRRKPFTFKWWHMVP

[7] = target: Protein-arginine deiminase type-4 (Mus musculus) (UniProt Q9Z183); assay: Inhibition of PAD4 in mouse 4T1 cells assessed as reduction in histone H3 citrullination at 2 uM by immunofluorescence analysis; type: cell-based
[8] = Clearance in male Sprague-Dawley rat at 3.5 mg/kg, iv by LC-MS/MS analysis; type: ADME, organism-based; settings: in vivo
[9] = AUC (0 to t) in male Sprague-Dawley rat at 3.5 mg/kg, iv by LC-MS/MS analysis; type: ADME, organism-based; settings: in vivo
[10] = tested on: 4T1-Luc; assay: Antitumor activity against mouse orthotopic 4T1-Luc cells implanted in female BALB/c mouse assessed as improvement in animal survival at 10 mg/kg, iv administered via tail vein every 2 days for 9 times for 17 days and measured every 2 days; type: functional, organism-based; settings: time 17.0 day
[11] = tested on: 4T1-Luc; assay: Antitumor activity against mouse orthotopic 4T1-Luc cells implanted in iv dosed female BALB/c mouse assessed as reduction in tumor volume administered via tail vein every 2 days for 9 times for 17 days and measured every 2 days; type: functional, organism-based; settings: dose 1-10 mg/kg, time 17.0 day
[12] = Antitumor activity against mouse orthotopic 4T1-Luc cells implanted in female BALB/c mouse assessed as tumor growth inhibition at 10 mg/kg, iv administered via tail vein every 2 days for 9 times for 17 days and measured every 2 days relative to control; type: functional; settings: 408 h, time 17 day, read-out: TGI
[13] = tested on: 4T1-Luc; assay: Antimetastatic activity against mouse orthotopic 4T1-Luc cells implanted in iv dosed female BALB/c mouse assessed as reduction in lung metastasis by measuring reduction in metastatic lung nodules administered via tail vein every 2 days for 9 times for 17 days; type: functional, organism-based; settings: dose 1-10 mg/kg, time 17.0 day
[14] = tested on: 4T1-Luc; assay: Antimetastatic activity against mouse orthotopic 4T1-Luc cells implanted in iv dosed female BALB/c mouse assessed as reduction in lung metastasis administered via tail vein every 2 days for 9 times for 17 days by H and E staining based analysis; type: functional, organism-based; settings: dose 1-10 mg/kg, time 17.0 day
[15] = Toxicity in female BALB/c mouse implanted with mouse orthotopic 4T1-Luc cells assessed as reduction in body weight at 1 to 10 mg/kg, iv administered via tail vein every 2 days for 9 times for 17 days and measured every 2 days; type: organism-based; settings: in vivo, 408 h, dose 1-10 mg/kg, time 17 day
[16] = Toxicity in female BALB/c mouse implanted with mouse orthotopic 4T1-Luc cells assessed as effect on viscero-somatic ratio at 1 to 10 mg/kg, iv administered via tail vein every 2 days for 9 times for 17 days; type: organism-based; settings: in vivo, 408 h, dose 1-10 mg/kg, time 17 day
[17] = Toxicity in female BALB/c mouse implanted with mouse orthotopic 4T1-Luc cells assessed as effect on serum ALT level at 1 to 10 mg/kg, iv administered via tail vein every 2 days for 9 times for 17 days; type: organism-based; settings: in vivo, 408 h, dose 1-10 mg/kg, time 17 day
[18] = Toxicity in female BALB/c mouse implanted with mouse orthotopic 4T1-Luc cells assessed as effect on serum AST level at 1 to 10 mg/kg, iv administered via tail vein every 2 days for 9 times for 17 days; type: organism-based; settings: in vivo, 408 h, dose 1-10 mg/kg, time 17 day
[19] = Toxicity in female BALB/c mouse implanted with mouse orthotopic 4T1-Luc cells assessed as effect on serum urea level at 1 to 10 mg/kg, iv administered via tail vein every 2 days for 9 times for 17 days; type: organism-based; settings: in vivo, 408 h, dose 1-10 mg/kg, time 17 day
[20] = Toxicity in female BALB/c mouse implanted with mouse orthotopic 4T1-Luc cells assessed as effect on serum creatinine level at 1 to 10 mg/kg, iv administered via tail vein every 2 days for 9 times for 17 days; type: organism-based; settings: in vivo, 408 h, dose 1-10 mg/kg, time 17 day
[21] = Toxicity in female BALB/c mouse implanted with mouse orthotopic 4T1-Luc cells assessed as morphological changes in heart at 1 to 10 mg/kg, iv administered via tail vein every 2 days for 9 times for 17 days by H and E staining based analysis; type: organism-based; settings: in vivo, 408 h, dose 1-10 mg/kg, time 17 day
[22] = Toxicity in female BALB/c mouse implanted with mouse orthotopic 4T1-Luc cells assessed as morphological changes in liver at 1 to 10 mg/kg, iv administered via tail vein every 2 days for 9 times for 17 days by H and E staining based analysis; type: organism-based; settings: in vivo, 408 h, dose 1-10 mg/kg, time 17 day
[23] = Toxicity in female BALB/c mouse implanted with mouse orthotopic 4T1-Luc cells assessed as morphological changes in spleen at 1 to 10 mg/kg, iv administered via tail vein every 2 days for 9 times for 17 days by H and E staining based analysis; type: organism-based; settings: in vivo, 408 h, dose 1-10 mg/kg, time 17 day
[24] = Toxicity in female BALB/c mouse implanted with mouse orthotopic 4T1-Luc cells assessed as morphological changes in kidney at 1 to 10 mg/kg, iv administered via tail vein every 2 days for 9 times for 17 days by H and E staining based analysis; type: organism-based; settings: in vivo, 408 h, dose 1-10 mg/kg, time 17 day
[25] = tested on: Mus musculus; assay: In vivo inhibition of PAD4 in female BALB/c mouse implanted with mouse orthotopic 4T1-Luc cells assessed as inhibition of histone H3 citrullination in tumor at 10 mg/kg, iv administered via tail vein every 2 days for 9 times for 17 days by immunohistochemical staining based analysis; type: functional, organism-based; settings: time 17.0 day
[26] = tested on: Neutrophil; assay: In vivo inhibition of PAD4 in female BALB/c mouse implanted with mouse orthotopic 4T1-Luc cells assessed as inhibition of neutrophil extracellular traps formation in tumor at 10 mg/kg, iv administered via tail vein every 2 days for 9 times for 17 days by immunohistochemical staining based analysis; type: functional, organism-based; settings: time 17.0 day
[27] = tested on: Mus musculus; assay: Induction of tumor microenvironment in female BALB/c mouse implanted with mouse orthotopic 4T1-Luc cells assessed as downregulation of myeloid derived suppressive M-MDSC cells at 1 to 10 mg/kg, iv administered via tail vein every 2 days for 9 times for 17 days by single-cell mass spectrometry flow cytometry analysis; type: functional, organism-based; settings: dose 1-10 mg/kg, time 17.0 day
[28] = tested on: Mus musculus; assay: Induction of tumor microenvironment in female BALB/c mouse implanted with mouse orthotopic 4T1-Luc cells assessed as decrease in PD-L1 expression for PD-L1-positive/MHC-II-positive tumor-associated neutrophils at 1 to 10 mg/kg, iv administered via tail vein every 2 days for 9 times for 17 days; type: functional, organism-based; settings: dose 1-10 mg/kg, time 17.0 day
[29] = tested on: Mus musculus; assay: Induction of tumor microenvironment in female BALB/c mouse implanted with mouse orthotopic 4T1-Luc cells assessed as increase in MHC-II expression for MHC-II-positive tumor-associated neutrophils at 1 to 10 mg/kg, iv administered via tail vein every 2 days for 9 times for 17 days; type: functional, organism-based; settings: dose 1-10 mg/kg, time 17.0 day

N=C(CCl)NCCC[C@H](NC(=O)c1cc2c([nH]c3ccccc32)c(-c2ccccc2)n1)C(=O)NCc1ccccc1
2970 nM: IC50 [1]
Non-Toxic: Activity [15] | Activity [16] | Activity [17] | Activity [18] | Activity [19] | Activity [20] | Activity [21] | Activity [22] | Activity [23] | Activity [24]
790 nM: IC50 [2]
9.53 ng·h/mL: AUC(0-t) [9]
1754 mL/min/kg: CL [8]
active: Activity [4] Dose-Dependent Effect | Activity [5] Dose-Dependent Effect | inhibition [6] Dose-Dependent Effect | inhibition [7] | Activity [10] | Activity [11] Dose-Dependent Effect | Activity [13] Dose-Dependent Effect | Activity [14] Dose-Dependent Effect | inhibition [25] | inhibition [26] | Activity [27] | Activity [28] | Activity [29]
8390 nM: IC50 at 48 h [3]
61.8%: inhibition in vivo at 10 mg/kg [12]
